Results as given in PMC5587909, “Inhibition of the ATP Synthase Eliminates the Intrinsic Resistance of Staphylococcus aureus towards Polymyxins” (mBio, 2017).
In brackets after ≈: the same amount, converted by molar mass.

How the values were obtained:
Test in all cases: microbe, parasite or virus in culture
[1] = test system: S. aureus JE2 (wild type); conditions: 22 h; for MIC, WT: conventional antibiotics (Table 3), Etest on TSA, 37°C, WT JE2; for MIC: Staphylococcus aureus, read-out: MIC, WT
Excerpt: (§1) Staphylococcus aureus is intrinsically resistant to the clinically approved cationic antimicrobial peptides polymyxin B (PMB) and colistin ([1], [16]). […] The MIC for PMB was subsequently determined using Etests for the identified mutants.
(§2) The strains used in this study include S. aureus strain JE2 (plasmid-cured derivative of USA300 LAC) and all derivative strains within the Nebraska Transposon Mutant Library (NTML), consisting of 1,920 unique transposon mutants with inactivation of nonessential genes ([15]). The bursa aurealis transposon used to create the collection contains the resistance cassette ermB, which confers resistance to erythromycin ([15]). Additionally we used S. aureus SA113 and two derivatives, SA113 ΔdltA ([9]) and SA113 ΔmprF ([10]). All bacterial strains were cultured at 37°C in tryptic soy broth (TSB) or on tryptic soy agar (TSA), with antimicrobial agents added as indicated. Two methods have been employed to determine MICs to various antimicrobial agents. (i) A 2-fold broth microdilution assay in TSB (100 µl) with an initial inoculum of approximately 5 × 10^5 cells/ml was employed to determine the MICs of polymyxin B sulfate (Sigma), gallidermin (Santa Cruz Biotechnology), nisin (Sigma), bacitracin (Sigma), and LL-37 (Isca Biochemicals). […] The MIC was determined upon incubation at 37°C for 22 h. […]

[2] = test system: S. aureus JE2 atpA transposon mutant (SAUSA300_2060); conditions: for MIC, atpA: conventional antibiotics (Table 3), Etest on TSA, 37°C, atpA mutant
Excerpt: as §1, §2

[3] = test system: S. aureus JE2 graR transposon mutant (SAUSA300_0645); conditions: for MIC, graR: conventional antibiotics (Table 3), Etest on TSA, 37°C, graR mutant
Excerpt: as §1, §2

[4] = test system: S. aureus JE2 vraF transposon mutant (SAUSA300_0647); conditions: for MIC, vraF: conventional antibiotics (Table 3), Etest on TSA, 37°C, vraF mutant
Excerpt: as §1, §2

[5] = test system: S. aureus JE2 vraG transposon mutant (SAUSA300_0648); conditions: for MIC, vraG: conventional antibiotics (Table 3), Etest on TSA, 37°C, vraG mutant
Excerpt: as §1, §2

SMILES | MIC, WT [1] | MIC, atpA ([2]; 22 h) | MIC, graR ([3]; 22 h) | MIC, vraF ([4]; 22 h) | MIC, vraG ([5]; 22 h) | MIC [1] | other results
CCCCCCCCCC(=O)N[C@@H](Cc1c[nH]c2ccccc12)C(=O)N[C@H](CC(N)=O)C(=O)N[C@@H](CC(=O)O)C(=O)N[C@@H]1C(=O)NCC(=O)N[C@@H](CCCN)C(=O)N[C@@H](CC(=O)O)C(=O)N[C@H](C)C(=O)N[C@@H](CC(=O)O)C(=O)NCC(=O)N[C@H](CO)C(=O)N[C@@H]([C@H](C)CC(=O)O)C(=O)N[C@@H](CC(=O)c2ccccc2N)C(=O)O[C@@H]1C [Daptomycin, daptomycin] | 0.25 µg/mL (≈ 0.154 µM) | 0.250 µg/mL (≈ 0.154 µM) | 0.19 µg/mL (≈ 0.117 µM) | 0.25 µg/mL (≈ 0.154 µM) | 0.25 µg/mL (≈ 0.154 µM) | – | –
CNC(C)C1CCC(N)C(OC2C(N)CC(N)C(OC3OCC(C)(O)C(NC)C3O)C2O)O1 (stereo not drawn) [Gentamicin, gentamicin] | – | – | – | – | – | 1.5 µg/mL (≈ 3.14 µM) | MIC ([2]; Staphylococcus aureus, 22 h, read-out: MIC, atpA): 0.094 µg/mL (≈ 0.197 µM); fold reduction in MIC / increased sensitivity relative to WT ([2]; {}): 16 fold; MIC ([3]; Staphylococcus aureus, 22 h, read-out: MIC, graR): 0.5 µg/mL (≈ 1.05 µM); fold reduction in MIC / increased sensitivity relative to WT ([3]; {}): 3-6 fold; MIC ([4]; Staphylococcus aureus, 22 h, read-out: MIC, vraF): 0.38 µg/mL (≈ 0.796 µM); fold reduction in MIC / increased sensitivity relative to WT ([4]; {}): 3-6 fold; MIC ([5]; Staphylococcus aureus, 22 h, read-out: MIC, vraG): 0.25 µg/mL (≈ 0.523 µM); fold reduction in MIC / increased sensitivity relative to WT ([5]; {}): 3-6 fold
CC(=O)NC[C@H]1CN(c2ccc(N3CCOCC3)c(F)c2)C(=O)O1 [Linezolid, linezolid] | – | – | – | – | – | 2 µg/mL (≈ 5.93 µM) | –
Cc1onc(-c2ccccc2)c1C(=O)N[C@@H]1C(=O)N2[C@@H]1SC(C)(C)[C@@H]2C(=O)O [Oxacillin, oxacillin] | – | – | – | – | – | 0.5 µg/mL (≈ 1.25 µM) | –
CN[C@H](CC(C)C)C(=O)N[C@H]1C(=O)N[C@@H](CC(N)=O)C(=O)N[C@H]2C(=O)N[C@H]3C(=O)N[C@H](C(=O)N[C@H](C(=O)O)c4cc(O)cc(O)c4-c4cc3ccc4O)[C@H](O)c3ccc(c(Cl)c3)Oc3cc2cc(c3O[C@@H]2O[C@H](CO)[C@@H](O)[C@H](O)[C@H]2O[C@H]2C[C@](C)(N)[C@H](O)[C@H](C)O2)Oc2ccc(cc2Cl)[C@H]1O [Vancomycin, vancomycin] | 1.5 µg/mL (≈ 1.04 µM) | 1.500 µg/mL (≈ 1.04 µM) | 1 µg/mL (≈ 0.69 µM) | 0.75 µg/mL (≈ 0.518 µM) | 1 µg/mL (≈ 0.69 µM) | – | –
